The values that follow come from ChEMBL document CHEMBL1132747, “Development of plasmin and plasma kallikrein selective inhibitors and their effect on M1 (melanoma) and HT29 cell lines” (Bioorg Med Chem Lett, 2000).

The term IC50 denotes the midpoint of a concentration-inhibition curve.

Structures are written as SMILES.

In assay [1] the target is T1, Plasminogen (Homo sapiens, UniProt P00747). The assay is described as follows: Inhibitory activity of compound was evaluated against plasmin.
Assay [2] can be described thus: Inhibitory activity of compound was evaluated against plasmin-fibrin (Fn).
The nature of assay [3]: Inhibitory activity of compound was evaluated against thrombin-fibrinogen (Fg).
Assay [4] can be described thus: Inhibitory activity of compound was evaluated against thrombin-S-2238.
Assay [5] in a line: Inhibitory activity of compound was evaluated against urokinase-S-2444.
The nature of assay [6]: Inhibitory activity of compound was evaluated against plasma kallikrein-S-2302. Format: cell-free.
A short description of assay [7]: Inhibitory activity of compound was evaluated against plasma kallikrein-S-2302; not detectable. The assay is classed as cell-free.
Assay [8] deals with T1, Plasminogen. The assay is described as follows: Inhibitory activity of compound was evaluated against plasmin; not detectable.
Assay [9] is described as follows: Inhibitory activity of compound was evaluated against thrombin-S-2238; not detectable.
Assay [10] can be described thus: Inhibitory activity of compound was evaluated against thrombin-fibrinogen (Fg); not detectable.
The nature of assay [11]: Inhibitory activity of compound was evaluated against plasmin-fibrin (Fn); not detectable.
A short description of assay [12]: Inhibitory activity of compound was evaluated against urokinase-S-2444; not detectable.

T1 sequence (P00747 97-580 limits assumed): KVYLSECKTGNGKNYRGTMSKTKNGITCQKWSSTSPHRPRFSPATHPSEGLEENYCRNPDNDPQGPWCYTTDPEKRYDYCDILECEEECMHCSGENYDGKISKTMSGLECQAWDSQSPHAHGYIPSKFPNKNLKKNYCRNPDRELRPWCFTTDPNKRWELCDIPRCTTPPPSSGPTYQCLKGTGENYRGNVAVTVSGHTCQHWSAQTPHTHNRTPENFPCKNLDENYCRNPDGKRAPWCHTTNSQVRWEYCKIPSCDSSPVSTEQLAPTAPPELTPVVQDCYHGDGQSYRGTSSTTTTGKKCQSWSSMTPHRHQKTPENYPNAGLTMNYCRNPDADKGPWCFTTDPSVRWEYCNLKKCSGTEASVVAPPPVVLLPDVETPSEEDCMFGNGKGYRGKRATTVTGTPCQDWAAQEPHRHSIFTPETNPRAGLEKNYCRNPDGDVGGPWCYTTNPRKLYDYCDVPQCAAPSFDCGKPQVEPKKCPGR
T1 sequence (P00747 581-810 limits assumed): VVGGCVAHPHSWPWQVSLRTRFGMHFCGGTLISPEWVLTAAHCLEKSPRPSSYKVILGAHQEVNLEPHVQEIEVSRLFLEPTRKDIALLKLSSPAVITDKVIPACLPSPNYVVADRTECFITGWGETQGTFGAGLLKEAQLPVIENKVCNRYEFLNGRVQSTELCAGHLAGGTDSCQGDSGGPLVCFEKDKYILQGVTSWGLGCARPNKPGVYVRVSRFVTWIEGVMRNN

For `CCCCCCCCOC(=O)[C@H]1CC[C@H](CNC(=O)C(Cc2ccc(OC(=O)OCc3ccccc3Br)cc2)NC(=O)[C@H]2CC[C@H](CN)CC2)CC1` (some centres not stated), the IC50 against Plasminogen [1] is 2.5 µM; in [2], 0.56 µM; in assay [3] it was above 10 µM; in assay [4], above 50 µM; in [5] (read-out: IC50), above 50 µM; in assay [6] it was 45 µM.
Regarding `CC(=O)c1ccc(NC(=O)C(Cc2ccc(OC(=O)OCc3ccccc3Br)cc2)NC(=O)[C@H]2CC[C@H](CN)CC2)cc1` (some centres not stated), the IC50 against Plasminogen [1] came out at 0.23 µM; in assay [6] it was 0.37 µM.
Regarding `Cc1nc(C)c(CCCNC(=O)C(Cc2ccc(OC(=O)OCc3ccccc3Br)cc2)NC(=O)[C@H]2CC[C@H](CN)CC2)nc1O` (some centres not stated), the IC50 in assay [7] (read-out: IC50) is 36 µM; on Plasminogen [8] (read-out: IC50), 0.74 µM; in assay [2], 0.39 µM; in assay [9] (read-out: IC50) it was 490 µM; in assay [10] (read-out: IC50) it was above 250 µM; in assay [5] (read-out: IC50), 54 µM.
As for `CCCCCCCCNC(=O)C(Cc1ccc(OC(=O)OCc2ccccc2Br)cc1)NC(=O)[C@H]1CC[C@H](CN)CC1` (some centres not stated), the IC50 against Plasminogen [1] is 0.8 µM; in assay [2], 0.23 µM; in assay [3], above 25 µM; in assay [4] it was above 50 µM; in assay [5] (read-out: IC50), above 50 µM; in [6], 16 µM.
For `CC(C)CCNC(=O)C(Cc1ccc(OC(=O)OCc2ccccc2Br)cc1)NC(=O)[C@H]1CC[C@H](CN)CC1` (some centres not stated), the IC50 is 0.46 µM against Plasminogen [1]; 0.056 µM in assay [2]; above 100 µM in assay [3]; 70 µM in [4]; 260 µM in [5] (read-out: IC50); 2.1 µM in assay [6].
As to `CCCCCCCCNC(=O)C(Cc1ccc(OCc2ccncc2)cc1)NC(=O)[C@H]1CC[C@H](CN)CC1` (some centres not stated), the IC50 was 0.53 µM on Plasminogen [1]; 0.36 µM in assay [2]; above 100 µM in assay [3]; above 400 µM in [4]; 5.3 µM in assay [5] (read-out: IC50); 30 µM in assay [6].
On to `NC[C@H]1CC[C@H](C(=O)NC(Cc2ccc(Oc3ncccn3)cc2)C(=O)Nc2cccc(C(=O)O)c2)CC1` (some centres not stated), for which the IC50 is 32 µM at Plasminogen [1]; 29 µM in assay [2]; above 1000 µM in assay [3]; above 1000 µM in [4]; 650 µM in [5] (read-out: IC50); 0.71 µM in [6].
As for `NC[C@H]1CC[C@H](C(=O)NC(Cc2ccccc2)C(=O)Nc2ccc(CC(=O)O)cc2)CC1` (some centres not stated), the IC50 is 620 µM on Plasminogen [1]; 350 µM in assay [2]; above 1000 µM in assay [3]; above 1000 µM in assay [4]; 350 µM in [5] (read-out: IC50); 1.3 µM in assay [6].
On to `Cc1nc(Cc2ccccc2)c(O)nc1Cc1ccccc1`, for which the IC50 entry (in [7]; against Plasminogen [8]; in assay [11]; in [9]; in assay [10]; in [12]) was “Not detectable” each time.
Consider `Cc1nc(Cc2ccccc2)c(O)nc1CCCCNC(=O)c1cccs1`, for which the IC50 entry (in assay [7]; at Plasminogen [8]; in assay [11]; in [9]; in assay [10]; in [12]) was “Not detectable” in each case.
Regarding `Cc1nc(CCC(=O)OCc2ccccc2)c(O)nc1CCCCNC(=O)OCc1ccccc1`, the IC50 result (in assay [7]; on Plasminogen [8]; in [11]; in assay [9]; in assay [10]; in assay [5]) was “Not detectable” throughout.
